Measured values from a melting point compilation (Tetko et al.).

SMILES	melting point [°C]
NC(=O)c1cc(N)nc2ccccc12	199 to 201
NS(=O)(=O)c1cc2c(cc1Br)CCCC(=O)N2	249 to 251
CC(C)(C)OC(=O)N1CCN(C(=O)CN)CC1	95 to 97
Cc1nc2ccnn2c(C)c1CCC(=O)O	223 to 225
NC(=O)Cc1ccccc1Cl	178 to 180
CC1CC(C)CN(C(=O)c2ccccc2N)C1 (configuration not stated)	97 to 99
COc1ccc(O)c(C(C)N)c1 (configuration not stated)	123 to 125
Cc1ccc(NCCc2ccc(Cl)cc2)nn1	163 to 165
CCOC(=O)C(C)(C#N)Cc1ccncc1 (configuration not stated)	56 to 58
Cc1nc(COc2ccc(/C=C/C(=O)O)cc2)cs1	185 to 187
N#Cc1c(NC(=O)CCl)oc(-c2ccccc2)c1-c1ccccc1	155 to 157
Cc1ccc(S(=O)(=O)NCCC(=O)O)cc1	148 to 150
CC(=O)Nc1cccs1	146 to 148
Nc1ccc(S(=O)(=O)Nc2cccc(Cl)c2)cc1	132 to 134
O=S(=O)(NC1CC1)c1ccc(F)cc1	54 to 56
COc1ccc2[nH]cc(C3CCNCC3)c2c1	169 to 171
CNS(=O)(=O)c1ccc(CN)cc1	111 to 113
O=S1(=O)CCC(NC2CCNCC2)C1 (configuration not stated)	84 to 86
CCc1cc2c(Cl)ncnc2s1	55 to 57
COC(=O)/C(C#N)=C/c1ccc(OC)cc1	105 to 107
Cc1ccc(S(=O)(=O)N2CCCC2C(=O)O)cc1 (configuration not stated)	96 to 98
CS(=O)(=O)Cc1cccc(N)c1	121 to 123
CC(C)(C)Nc1nnc(S)s1	164 to 166
Cc1ccc(-n2c(S)nnc2-c2ccncc2)cc1C	260 to 262

SMILES	melting point [°C]
Cc1ccc(C=CC(=O)O)nc1	163 to 165
CC(C)(C(=O)NO)c1ccccc1	144 to 146
Cc1cc(C(=O)O)c2c(C3CC3)noc2n1	201 to 203
NC(=O)c1cc(-c2csc(N)n2)c[nH]1	235 to 237
COc1cc(S(=O)(=O)Cl)c(Cl)cc1C(=O)O	159 to 161
O=C(O)c1cc(COc2ccc(Cl)cc2Cl)on1	151 to 153
O=C(O)c1ccc(=O)n(-c2cccc(Br)c2)c1	279 to 281
CCNC(=O)COc1cccc(CN)c1	62 to 64
Cc1cccc([N+](=O)[O-])c1S(=O)(=O)Cl	91 to 93
Cc1cc(-c2nnc3ccccn23)ccc1N	180 to 182
CC(=O)c1nnn(-c2cccc3ncccc23)c1C	116 to 118
Cc1c[nH]c(=O)n1-c1cccc(C(=O)O)c1	289 to 291
OCc1cccc2nccn12	154 to 156
Cc1nn(-c2ccccc2)c(Oc2ccccc2)c1C=O	92 to 94
O=C1NC(=O)C2(CN3CCC2CC3)N1 (configuration not stated)	298 to 300
O=C1CCC2(CC1)C(=O)Nc1ccccc12	198 to 200
Nc1cc2c(nn1)CCNC2	219 to 221
COC(=O)C(O)c1cccc(O)c1 (configuration not stated)	124 to 126
Clc1ccc(-c2cc(CBr)on2)cc1	116 to 118
O=c1[nH]c(-c2cccnc2)cs1	225 to 227
O=C(O)CCC(=O)c1ccc2c(c1)CCC2	123 to 125
CC(C)(C)OC(=O)N1CCc2ncc(N)cc2C1	116 to 118
Fc1ccc(Oc2ccncc2)c(Br)c1	74 to 76
O=C(CCl)NCc1ccccc1CN1CCCC1=O	125 to 127

SMILES	melting point [°C]
c1ccc(CN2CCOC(c3nn[nH]n3)C2)cc1 (configuration not stated)	178 to 180
COc1cccc(CO)c1OC(F)F	77 to 79
CCOC(=O)c1oc2ccc(OC)cc2c1C	103 to 105
CC(Oc1ccc(C#N)cc1)C(=O)NN (configuration not stated)	129 to 131
CCOC(=O)c1cccnc1S(N)(=O)=O	92 to 94
COc1ccc(Cc2nnc(N)s2)cc1	174 to 176
O=Cc1cc2ccccc2nc1O	308 to 310
COC(=O)c1cccc(N2CC(=O)NC2=O)c1	189 to 191
NCC(O)c1cccc(OCc2ccccc2)c1 (configuration not stated)	107 to 109
COC(=O)c1cc(-c2cccs2)ccc1N	89 to 91
COc1ccc(C(=O)C(C)Br)cc1 (configuration not stated)	66 to 68
CCOc1ccc(C(=O)NN)cc1OC	161 to 163
CC(C)c1nc(I)c2ccccn12	84 to 86
Cc1noc(N)c1C(=O)O	150 to 154
Cn1c(S)nnc1C1CCC1	124 to 126
COc1ccc(NC(=O)c2ccccc2N)c(OC)c1	154 to 156
O=C(O)Cc1ccn(-c2ccccc2)n1	99 to 101
CC(C)CCNC(=O)C1CSCN1 (configuration not stated)	162 to 164
O=C(c1cc2ccccc2cc1O)N1CCOCC1	216 to 218
CS(=O)(=O)Nc1ccc(C(=O)CBr)cc1	178 to 180
NC(=O)CCC1CCCCC1	116 to 118
CNc1nc(C(=O)O)cs1	204 to 206
O=S(=O)(O)c1ccnc2ccccc12	317 to 319
Cc1cc(S(=O)(=O)Cl)c(Cl)cc1F	44 to 46
